The test deals with human pluripotent stem cells (hPSC). Description: Differentiation of human pluripotent stem cells (hPSC) into corneal endothelial cell (CEC)-like cells. Conditions: for emergence of NCC markers: SB431542 and CHIR99021 as differentiation induction agents; for time at which NCC markers appeared: culture medium with about 10 μM SB431542 and about 4 μM CHIR99021 together. The class given is cell-based. Here is the method:
Embryonic (hESC) and induced pluripotent stem cells (iPSC) were used to generate CECs. Briefly, hPSCs were seeded on Laminin 521 (Biolamina) coated CellBind 6/12 well-plates (Corning) in 10 000-60 000 cell/cm 2 cell density. The cells were cultured in Essential 8 Flex medium (Thermo Fisher) for 24h. On day 1, Essential 8 flex medium was replaced with an induction medium supplemented with 10 μM SB431542 (Stemcell), 4 μM CHIR99021 (Stemcell) and 10 μM retinoic acid (RA, Sigma-Aldrich). Base of the induction medium consisted of KO-DMEM, 15% Knock-out serum replacement, 2 mM GlutaMax-I, 0.1 mM 2-mercaptoethanol (all from Thermo Fisher), 1% Non-essential Amino Acids, 50 U/ml Penicillin/Streptomycin. […] After day 9, CEC-like cells were formed, and harvested for analyses.
The hPSC-derived CECs were analyzed by immunocytochemistry. Briefly, the cells were fixed with 1 or 4% paraformaldehyde (PFA, Sigma-Aldrich) for 15 minutes. Next, the cells were permeabilized for 10 minutes with 0.1% Triton X-100 (Sigma-Aldrich) followed by blocking with 3% bovine serum albumin (BSA) for 1 hour. Then the cells were first incubated with 1:400 zona occludens-1 (ZO-1; Thermo Fisher), 1:200 alpha 1 sodium potassium ATPase (Na+/K+-ATPase, Abcam) and 1:400 CD166 (BD Biosciences) primary antibodies overnight at 4° C. The cells were next treated with 1:800 Donkey anti-Rabbit IgG Secondary Antibody, Alexa Fluor 488 (Thermo Fisher) against ZO-1; 1:800 Donkey anti-Mouse IgG Secondary Antibody, Alexa Fluor 568 (Thermo Fisher) against Na+/K+-ATPase and CD166; and 1:800 Donkey anti-Goat IgG Secondary Antibody, Alexa Fluor 568 (Thermo Fisher) against OCT-3/4. […] The images of mounted cells were captured using a fluorescence microscope (Olympus IX51; Olympus, Tokyo, Japan) and prepared using image editing software (Adobe Photoshop CC 2018; Adobe Systems) […]
Total RNA was extracted from undifferentiated hPSCs (d0), and from 3 time points during the time of hCEC induction (d3, d6 and d9) with Rneasy Minikit Plus (Qiagen). RNA concentration of each sample was determined using NanoDrop-1000 spectrophotometer (NanoDrop Technologies). […] The resulting cDNA samples were analyzed with qPCR using sequence-specific TaqMan Gene Expression Assays (Thermo Fisher) for OCT4 (Hs00999632_g1), PITX2 (Hs01553179_m1), AQP1 (Hs01028916_m1), SLC4A4 (Hs00186798_m1), and FOXC1 (Hs00559473_s1). […] Results were analyzed with the 7300 System SDS Software (Applied Biosystems) and Microsoft Excel. Based on the cycle threshold (CT) values given by the software, the relative quantification of each gene was calculated by applying the […] (Livak and Schmittgen, 2001). Results were normalized to GAPDH (Hs99999905_m1), with the undifferentiated hPSCs as the calibrator to determine the relative quantities of gene expression in each sample.

For `Cc1c[nH]c(-c2cnc(NCCNc3ccc(C#N)cn3)nc2-c2ccc(Cl)cc2Cl)n1` [CHIR99021], the “emergence of NCC markers” value is recorded as “contributed to emergence of NCC markers” and the “time at which NCC markers appeared” value is around 3 days.
For the compound `NC(=O)c1ccc(-c2nc(-c3ccc4c(c3)OCO4)c(-c3ccccn3)[nH]2)cc1` [SB431542, 4-[4-(1,3-Benzodioxol-5-yl)-5-(2-pyridinyl)-1H-imidazol-2-yl]-benzamide], the “emergence of NCC markers” value is “contributed to emergence of NCC markers” and the “time at which NCC markers appeared” value is around 3 days.
